From PubChem BioAssay (NCI)
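Values below derive from 48-hour exposures of cells grown in 96-well plates, with endpoints linearly interpolated between the two concentrations bracketing the appropriate inhibition level. GI50 is the concentration that inhibits growth by half. TGI marks complete inhibition of growth.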

Tests used:
Assay in all cases: NCI anticancer screen, dose series, 48 h
SN12C renal = test system: SN12C renal
HOP-92 NSCLC = test system: HOP-92 NSCLC
MCF7 breast = test system: MCF7 breast
SF-268 CNS = test system: SF-268 CNS
KM12 colon = test system: KM12 colon
HOP-62 NSCLC = test system: HOP-62 NSCLC
U251 CNS = test system: U251 CNS
UO-31 renal = test system: UO-31 renal
LOX IMVI melanoma = test system: LOX IMVI melanoma
SR leukemia = test system: SR leukemia

Structure (SMILES) | TGI (SN12C renal) [µM] | TGI (HOP-92 NSCLC) [µM] | TGI (MCF7 breast) [µM] | TGI (SF-268 CNS) [µM] | TGI (KM12 colon) [µM] | TGI (HOP-62 NSCLC) [µM] | TGI (U251 CNS) [µM] | TGI (UO-31 renal) [µM] | TGI (LOX IMVI melanoma) [µM] | TGI (SR leukemia) [µM] | GI50 (SN12C renal) [µM] | GI50 (HOP-92 NSCLC) [µM] | GI50 (MCF7 breast) [µM] | GI50 (SF-268 CNS) [µM] | GI50 (KM12 colon) [µM] | GI50 (HOP-62 NSCLC) [µM] | GI50 (U251 CNS) [µM] | GI50 (UO-31 renal) [µM] | GI50 (LOX IMVI melanoma) [µM] | GI50 (SR leukemia) [µM]
Nc1ccc(-c2nc3ccccc3s2)cc1C#Cc1ccccc1 | 37.1 | 52.8 | 19.2 | 54.2 | 37.9 | 28.2 | 38.6 | 36.7 | 36 | > 100 |  |  |  |  |  |  |  |  |  | 
CC[P+]1(c2ccccc2)[C@@H](C)CC[C@@H]1C | > 100 | > 100 | > 100 | > 100 | > 100 | > 100 | > 100 | > 100 | > 100 | > 100 |  |  |  |  |  |  |  |  |  | 
CCn1c(=O)c2nc(SC)sc2n(-c2ccccc2)c1=O | > 100 | > 100 | > 100 | > 100 | > 100 | > 100 | > 100 | 56.4 | > 100 | > 100 |  |  |  |  |  |  |  |  |  | 
C=CCOc1ccccc1C1(O)c2ccccc2C2=NCCCN21 (stereo not given) | > 100 | > 100 | > 100 | > 100 | > 100 | 54.1 | > 100 | > 100 | > 100 | > 100 |  |  |  |  |  |  |  |  |  | 
NC(Cc1ncccn1)C(=O)O (stereo not given) | > 100 | > 100 | > 100 | > 100 | > 100 | > 100 | > 100 | > 100 | > 100 | > 100 |  |  |  |  |  |  |  |  |  | 
Cc1cccc2c(N)c3cccc(C(=O)NCC[N+]4(Cc5ccc([N+](=O)[O-])cc5)CCOCC4)c3nc12 | > 100 | 71.8 | > 100 | > 100 | > 100 | > 100 | > 100 | > 100 | > 100 | 64.2 |  |  |  |  |  |  |  |  |  | 
Nc1c2c(nc3ccccc13)-c1ccccc1NCCC2 | > 100 | 65.6 | > 100 | > 100 | > 100 | 54.2 | > 100 | 88.3 | 35.5 | > 100 |  |  |  |  |  |  |  |  |  | 
CN(C(=O)Cc1cc(Cl)c(Cl)cc1NC(=O)CN)[C@H]1CCCC[C@@H]1N1CCCC1 | > 100 | > 100 | > 100 | > 100 | > 100 | > 100 | 32.6 | > 100 | 41.6 | 77.8 |  |  |  |  |  |  |  |  |  | 
CC(C)(C)OC(=O)Cn1ncn(NC(=O)Cc2ccccc2)c1=O | > 10 | > 10 | > 10 | > 10 | > 10 | > 10 | > 10 | > 10 | > 10 | > 10 |  |  |  |  |  |  |  |  |  | 
Cc1cccc(C)c1Nc1nc(C)c(C(=O)CC(=O)C(=O)Nc2c(C(C)C)cccc2C(C)C)s1 | > 100 | > 100 | > 100 | > 100 | > 100 | > 100 | > 100 | > 100 | > 100 | > 100 |  |  |  |  |  |  |  |  |  | 
CC(C)(C)C1=CC(=C2C=Cc3ccccc3O2)C=C(C(C)(C)C)C1=O | 15.3 | > 51 | 13.1 | > 34.3 | 9.7 | 20.9 | 7.51 | 21.9 | 12.9 | 5.35 |  |  |  |  |  |  |  |  |  | 
CCOC(=O)c1c(N2CCCC2)ncn(C)c1=S | > 100 | > 100 | > 100 | > 100 | > 100 | > 100 | > 100 | > 100 | > 100 | > 100 |  |  |  |  |  |  |  |  |  | 
CC(C)/C(=N\[N+](C)(C)C)c1ccccc1 | > 100 | > 100 | > 100 | > 100 | > 100 | > 100 | > 100 | > 100 | > 100 | > 100 |  |  |  |  |  |  |  |  |  | 
COC(=O)/C=C\C(C#N)(C#N)N=Cc1sccc1C | 22.3 | 3.9 | 3.13 | 26.1 | 30.3 | 27.8 | > 40.6 | 3.51 | 3.31 | > 100 |  |  |  |  |  |  |  |  |  | 
CCOC(=O)C(O)(C(=O)OCC)c1cc(C(C)(C)C)c(O)c(C(C)(C)C)c1 | > 100 | > 100 | > 100 | > 100 | > 100 | > 100 | > 100 | > 100 | > 100 | > 100 |  |  |  |  |  |  |  |  |  | 
CSc1c(CC(=O)Nc2ccc(Cl)cc2)n(Cc2ccccc2)c2ccccc12 | > 100 | 42.8 | > 100 | > 100 | > 100 | > 100 | 25 | > 100 | > 100 | > 100 |  |  |  |  |  |  |  |  |  | 
O=[N+]([O-])/C(C(Cl)=C(Cl)Cl)=C(\N1CCCCC1)n1nnc2ccccc21 | 33.7 | 39.6 | > 69.4 | 45 | > 88 | 48.8 | 31.1 | 34.3 | 31.7 | 58.4 |  |  |  |  |  |  |  |  |  | 

Structure (SMILES) | TGI (SN12C renal) [µM] | TGI (HOP-92 NSCLC) [µM] | TGI (MCF7 breast) [µM] | TGI (SF-268 CNS) [µM] | TGI (KM12 colon) [µM] | TGI (HOP-62 NSCLC) [µM] | TGI (U251 CNS) [µM] | TGI (UO-31 renal) [µM] | TGI (LOX IMVI melanoma) [µM] | TGI (SR leukemia) [µM] | GI50 (SN12C renal) [µM] | GI50 (HOP-92 NSCLC) [µM] | GI50 (MCF7 breast) [µM] | GI50 (SF-268 CNS) [µM] | GI50 (KM12 colon) [µM] | GI50 (HOP-62 NSCLC) [µM] | GI50 (U251 CNS) [µM] | GI50 (UO-31 renal) [µM] | GI50 (LOX IMVI melanoma) [µM] | GI50 (SR leukemia) [µM]
COc1cccc2cc(C(C)=O)c(=O)oc12 | > 100 | > 100 | > 100 | > 100 | > 100 | > 100 | > 100 | > 100 | > 100 | > 100 |  |  |  |  |  |  |  |  |  | 
CC1(C)CCCCCC(C)(CCCO)C1=O (stereo not given) | > 100 | > 100 | > 100 | > 100 | > 100 | > 100 | > 100 | > 100 | > 100 | > 100 |  |  |  |  |  |  |  |  |  | 
Cc1ccc(O)c(C2=CC(c3cccc(Br)c3)SC(N)=N2)c1 (stereo not given) | 40.7 | 60.4 | > 100 | 88.9 | 82.3 | 52 | 33.4 | 65.3 | 34.7 | 49.7 |  |  |  |  |  |  |  |  |  | 
CC(=O)C(=[N+]=[N-])C(=O)N(C)CCC#N | > 10 | > 10 | > 10 | > 10 | > 10 | > 10 | > 10 | > 10 | > 10 | > 10 |  |  |  |  |  |  |  |  |  | 
ClCc1cccc(CSc2ncnc3c2ncn3Cc2cccc(CCl)c2)c1 | 7.33 | 3.32 | 3.3 | 4.91 | 3.46 | 3.33 | 3.01 | 3.93 | 2.74 | 9.89 | 2.02 | 1.64 | 1.59 | 1.99 | 1.88 | 1.8 | 1.59 | 1.74 | 1.4 | 2.82
CC1CN=C(c2cccc(-c3nc(-c4cccc(C5=NCC(C)N5)c4)nc(N(C)C)n3)c2)N1 (stereo not given) | 3.46 | 20.3 | 3.33 | 10.7 | 7.72 | 5.9 | 2.13 | 13.4 | 2.6 | 1.96 |  |  |  |  |  |  |  |  |  | 
CO[C@@H]1C[C@H](OC(N)=O)[C@@H]2C=C[C@@H]3/C=C(C)/C=C/[C@@H](C)[C@H](/C(C)=C/[C@@H](C)NC(C)=O)OC(=O)/C=C/C=C(C)\C=C\[C@]3(C)[C@@H]2C1 | 1.67 | 0.148 | 17 | 1.4 | 0.163 | 0.429 | 0.375 | 0.111 | 0.00689 | 5.11 |  |  |  |  |  |  |  |  |  | 
O=C1CSC2=NC3=C(CSC/C3=C\c3ccccc3)C(c3ccccc3)N12 (stereo not given) | > 100 | > 100 | > 100 | > 100 | > 100 | > 100 | > 100 | > 100 | > 100 | > 100 |  |  |  |  |  |  |  |  |  | 
C=CCc1cc(C(Cc2ccccc2)NC(C)C)cc(OCc2ccccc2)c1OCc1ccccc1 (stereo not given) | 29.4 | 25.3 | 32 | 30 | 40.2 | 30.3 | 27.7 | 21.7 | 31.7 | 28.5 |  |  |  |  |  |  |  |  |  | 
CC(C)(C)OC(=O)CN1CCN(CC(=O)N2CCN(C(=O)OCc3ccccc3)CC2)CCN(CC(=O)OC(C)(C)C)CCN(CC(=O)N2CCN(C(=O)OCc3ccccc3)CC2)CC1 | 16.3 | 11.4 | 14.9 | 7.34 | 3.06 | 16.4 | 9.51 | 25.5 | 2.93 | 1.75 |  |  |  |  |  |  |  |  |  | 
O=S(=O)(/N=C(\NO)Nc1ccc(Cl)cc1)c1ccccc1 | 35.2 | 22.4 | > 100 | > 70.3 | > 100 | > 100 | > 100 | 27.5 | 33.6 | 9.91 |  |  |  |  |  |  |  |  |  | 
COc1ccc2c3c1OC1C34CCN(C)C(C2)C4=CC(I)C1(OC)OC (stereo not given) | 18.9 | 24.5 | 19 | 42.8 | 28.3 | 20.8 | 29.8 | 28.5 | 23.9 | 10.2 |  |  |  |  |  |  |  |  |  | 
CCN(CC)CCCNc1[nH]ncc2c(C)c3nc4ccc(OC)cc4c3cc12 | 1.77 | 3.14 | 1.28 | 3.52 | 4.49 | 4.16 | 1.77 | 15 | 0.829 | 1.76 |  |  |  |  |  |  |  |  |  | 
COP(=O)(OC)/C(=C/c1cn(C(c2ccccc2)(c2ccccc2)c2ccccc2)cn1)NC=O | 46.4 | 68 | 33.7 | 33.1 | > 100 | 35.9 | 35.4 | > 100 | 32.5 | > 100 |  |  |  |  |  |  |  |  |  | 
COc1cc(NC=C2C(=O)OC(C)(C)OC2=O)c(OC)c(C)c1OC | > 100 | > 100 | > 100 | > 100 | > 100 | > 100 | > 100 | > 100 | > 100 | > 100 |  |  |  |  |  |  |  |  |  | 
Cc1ccc(S(=O)(=O)N/N=C2/CC3CCC4CC2CC34)cc1 (stereo not given) | > 100 | > 100 | > 100 | > 100 | > 100 | > 100 | > 100 | > 100 | > 100 | > 100 |  |  |  |  |  |  |  |  |  | 
